From patent US7083933B1, “Methods for identification of modulators of OSGPR116 activity” (Prosidion Limited, priority 2003, dated 2006)

How the values were obtained:
[1] = tested on: vector transformed yeast cells; test: Yeast reporter assay, vector transformed (no receptor) control yeast; assay type: cell-based
Source text: (§1) The yeast cell-based reporter assays have previously been described in the literature (e.g. see Miret J. J., et. al. (2002) J. Biol. Chem. 277:6881–6887; Campbell R. M., et. al. (1999) Bioorg Med. Chem. Lett. 9:2413–2418; King K., et. al. (1990) Science. 250:121–123); WO 99/14344; WO 00/12704; and U.S. Pat. No. 6,100,042). Briefly, yeast cells have been engineered such that the endogenous yeast G-alpha (GPA1) has been deleted and replaced with G-protein chimeras constructed using multiple techniques. Additionally the endogenous yeast alpha-cell GPCR, Ste3 has been deleted to allow for a […] expression of a mammalian GPCR of choice. In the yeast, elements of the pheromone signaling transduction pathway, which are conserved in eukaryotic cells (for example, the mitogen-activated protein kinase pathway), drive the expression of Fus1. By placing β-galactosidase (LacZ) under the control of the Fus1 promoter (Fus1p), a system has been developed whereby receptor activation leads to an enzymatic read-out. Different yeast strains (e.g. FIG. 10) denote the presence of different G-alpha chimeras (see “yeast reporter assays” in Results section below for definitions).
(§2) Yeast cells are transformed by an adaptation of the Lithium acetate method described by Agatep et.al. (Agatep, R., et. al. (1998) Transformation of Saccharomyces cerevisiae by the lithium acetate/single-stranded carrier DNA/polyethylene glycol (LiAc/ss-DNA/PEG) protocol. Technical Tips Online, Trends Journals, Elsevier). Briefly, yeast cells are grown overnight on yeast tryptone plates (YT). Carrier single-stranded DNA (10 μg), 2 μg of each of two Fus1p-LacZ reporter plasmids (one with URA selection marker and one with TRP), 2 μg of OSGPR116 in yeast expression vector (2μ origin of replication) and a lithium acetate/polyethylene glycol/TE buffer is pipetted into an Epindorf tube. The yeast expression plasmid containing the receptor/no receptor control has a LEU marker. Yeast cells are inoculated into this mixture and the reaction proceeds at 30° C. for 60 minutes. The yeast cells are then heat-shocked at 42° C. for 15 minutes. The cells are then washed and spread on selection plates. The selection plates are synthetic defined yeast media minus LEU, URA and TRP (SD-LUT). After incubating at 30° C. for 2–3 days, colonies that grow on the selection plates are then tested in the LacZ assay.
(§3) In order to perform fluorometric enzyme assays for β-galactosidase, yeast cells were grown overnight in liquid SD-LUT media to an unsaturated concentration (i.e. the cells are still dividing and have not yet reached stationary phase). They are diluted in fresh media to an optimal assay concentration and 90 μL of yeast cells were added to 96-well black polystyrene plates (Costar). Compounds, dissolved in ethanol and diluted in a 1% BSA solution to 10× concentration, were added to the plates and the yeast are placed at 30° C. for 4h. After 4h, the substrate for the β-galactosidase is added to each well. The substrate may yield a fluorescent or calorimetric read-out upon the activity of the β-galactosidase. In these experiments, Fluorescein di (β-D-galactopyranoside) was used (FDG), a substrate for the enzyme that releases fluorescein, allowing a fluorometric read-out. 20 μL of 500 uM FDG was used. After incubation of the cells with the substrate for 30–60 mins, 20 μL of 1M sodium carbonate is added to terminate the reaction and enhance the fluorescent signal. The plates were then read in a fluorometer at 485/535 nm. As an alternate read-out system, the yeast are also engineered with a Fus1p-HIS gene which means that activation of the receptor can also be measured through the growth of the yeast in a […] deficient media.

OSGPR116 [2] = target: T1, OSGPR116 (Homo sapiens, UniProt Q8TDV5); test: Yeast cell-based Fus1p-LacZ reporter assay, human OSGPR116; set-up: expressed in transfected cells; host or cells: engineered yeast (GPA1 and Ste3 deleted, G-alpha chimera, Fus1p-LacZ reporters); conditions: for rank of efficacy and potency among compounds tested: yeast-based reporter assay
T1 sequence (Q8TDV5 1-335): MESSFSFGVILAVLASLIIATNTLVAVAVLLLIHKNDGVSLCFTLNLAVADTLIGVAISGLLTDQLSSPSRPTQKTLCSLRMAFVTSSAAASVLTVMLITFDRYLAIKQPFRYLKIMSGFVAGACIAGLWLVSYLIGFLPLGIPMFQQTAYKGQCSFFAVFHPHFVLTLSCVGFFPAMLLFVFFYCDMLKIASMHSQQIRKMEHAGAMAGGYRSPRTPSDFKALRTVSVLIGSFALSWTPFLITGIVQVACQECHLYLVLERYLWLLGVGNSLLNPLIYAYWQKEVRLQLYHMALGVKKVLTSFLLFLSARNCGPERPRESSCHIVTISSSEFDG
Source text: as §1, §2, §3

[3] = target: T2, mouse homolog of OSGPR116 (Mus musculus, UniProt Q7TQP3); test: Yeast cell-based Fus1p-LacZ reporter assay, mouse OSGPR116; conditions: mouse isoform, FIG. 9b; Galpha-q5 yeast, 4h incubation
T2 construct: expressed in transfected cells; host or cells: engineered yeast (GPA1 and Ste3 deleted, G-alpha chimera, Fus1p-LacZ reporters)
T2 sequence (Q7TQP3 1-335): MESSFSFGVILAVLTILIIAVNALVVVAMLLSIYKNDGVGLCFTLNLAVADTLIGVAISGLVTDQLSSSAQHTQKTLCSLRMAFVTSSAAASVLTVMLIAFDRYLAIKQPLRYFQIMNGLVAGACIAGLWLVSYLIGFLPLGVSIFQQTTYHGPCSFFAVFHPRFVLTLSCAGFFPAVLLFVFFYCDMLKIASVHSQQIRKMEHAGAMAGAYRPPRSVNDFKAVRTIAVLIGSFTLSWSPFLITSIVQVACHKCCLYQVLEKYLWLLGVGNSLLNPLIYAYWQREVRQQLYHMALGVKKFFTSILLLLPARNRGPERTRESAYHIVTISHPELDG
Source text: as §1, §2, §3

OSGPR116 [4] = target: T1, OSGPR116; test: Adenylate cyclase (alpha-screen cAMP) assay in ASPC-1 cells endogenously expressing OSGPR116; assay type: cell-based; conditions: FIG. 11
Description: The adenylate cyclase assay was performed with an alpha-screen cAMP assay kit […]. The manufacturers protocol was followed. Briefly, ASPC-1 cells, known to endogenously express moderate levels of OSGPR116 were […] from the culture flask using a lysis buffer (0.1% BSA in PBS containing 20 μM rolipram and 0.54% TWEEN20), washed with PBS and diluted in assay buffer (0.1% BSA in PBS containing 20 μM rolipram) to a concentration of 600,000 cells/mL. White polystyrene 96-well plates were used for the assay. […] The plate was incubated at room temperature 30 min. For the standard cAMP curve used to quantify the data, 5 μl water+5 μl 4×cAMP in assay buffer+5 μl acceptor beads+5 μl cells were added to the plate. To terminate the assay, 10 ul of the donor beads solution was added (30 nM biotin-cAMP/60 μg streptavidin-donor beads in 1 mL lysis buffer). The plates were incubated overnight, protected from light. A Fusion-αHT counter was used to read the plates according to the kit's instructions.

Wistar rats = test: In vivo acute feeding experiment in fasted rats; set-up: species or system rat; conditions: overnight fasted Wistar rats, 1 and 2h post-treatment, FIG. 13
Description: For the acute feeding experiment, the experimental conditions used as closely as possible replicated those of de Fonseca, F. R. et.al. (2001) Nature, 414:209–212. […] Oleoylethanolamide (3 and 10 mg/kg i.p.) or vehicle was administered 15 minutes prior to the availability of food. Oleoylethanolamide was dissolved in dimethylsulfoxide (DMSO) and administered in a 70% DMSO in sterile water solution. Following presentation of food, food intake (grams) was measured at 1, 2, 3 and 4h intervals and the results compared to a normal feeding and vehicle treated control group.

OSGPR116 [5] = target: T1, OSGPR116; test: Yeast reporter assay in strains with different G-alpha chimeras; assay type: cell-based; set-up: expressed in transfected cells; host or cells: yeast strains 13397, 13393, 15070, 18043, 20202, 10151 with different G-alpha chimeras; conditions: G-alpha-q (13397), G-alpha-i (13393, 15070, 18043), G-alpha-s (20202, 10151) strains; FIG. 10
Source text: The yeast cell-based reporter assays have previously been described in the literature (e.g. see Miret J. J., et. al. (2002) J. Biol. Chem. 277:6881–6887; Campbell R. M., et. al. (1999) Bioorg Med. Chem. Lett. 9:2413–2418; King K., et. al. (1990) Science. 250:121–123); WO 99/14344; WO 00/12704; and U.S. Pat. No. 6,100,042). Briefly, yeast cells have been engineered such that the endogenous yeast G-alpha (GPA1) has been deleted and replaced with G-protein chimeras constructed using multiple techniques. Additionally the endogenous yeast alpha-cell GPCR, Ste3 has been deleted to allow for a […] expression of a mammalian GPCR of choice. […] By placing β-galactosidase (LacZ) under the control of the Fus1 promoter (Fus1p), a system has been developed whereby receptor activation leads to an enzymatic read-out. […]
In order to perform fluorometric enzyme assays for β-galactosidase, yeast cells were grown overnight in liquid SD-LUT media to an unsaturated concentration (i.e. the cells are still dividing and have not yet reached stationary phase). […] The substrate may yield a fluorescent or calorimetric read-out upon the activity of the β-galactosidase. In these experiments, Fluorescein di (β-D-galactopyranoside) was used (FDG), a substrate for the enzyme that releases fluorescein, allowing a fluorometric read-out. […] The plates were then read in a fluorometer at 485/535 nm. […]

**Q.** `CCCCCCCC/C=C\CCCCCCCC(=O)NCCO` [oleoyl ethanolamide] was tested. Which “response of vector controls in the same yeast strains” value ([1]; G-alpha chimera strains, FIG. 10) did it give?
**A.** did not respond

**Q.** And the “increase in fluorescence in vector transformed cells” value ([1]; yeast without OSGPR116 expression, FIGS. 9a, 9b)?
**A.** not

**Q.** And the “effect on fluorescence (β-galactosidase activity) in yeast transformed with OSGPR116 receptor” value (OSGPR116 [2]; human isoform, FIG. 9a, Galpha-q5 yeast, 4h incubation)?
**A.** increase in fluorescence

**Q.** What about the “rank of efficacy and potency among compounds tested” value (OSGPR116 [2]; listed as Oleoyl ethanolamide) of the same molecule?
**A.** most efficacious and potent

**Q.** And the “rank of efficacy and potency among compounds tested” value (OSGPR116 [2]; listed as oleoylethanolamide)?
**A.** optimal endogenously produced agonist

**Q.** What about the “effect on fluorescence (β-galactosidase activity) in yeast transformed with OSGPR116 receptor” value [3] of the same molecule?
**A.** increase in fluorescence

**Q.** What about the “forskolin-stimulated cAMP accumulation” value (OSGPR116 [4]; 10 μM compound with forskolin (10 μM)) of the same molecule?
**A.** inhibition

**Q.** And the cAMP production (OSGPR116 [4]; 10 μM, without forskolin)?
**A.** did not cause an increase

**Q.** And the “feeding (food intake)” value (Wistar rats; 3 mg/kg i.p.)?
**A.** inhibition of feeding

**Q.** What about the “feeding (food intake)” value (Wistar rats; 10 mg/kg i.p.) of the same molecule?
**A.** inhibition of feeding

**Q.** What about the “response in OSGPR116-transformed yeast with G-alpha chimeras” value (OSGPR116 [5]) of the same molecule?
**A.** produce a response
